Where two headings read alike, the source gives them in different places.
Experiments:
[1] = tested on: Human pancreatic cancer cell line BxPC-3; assay type: cell-based; settings: BxPC-3 cell line
Procedure: (§1) For combination effects, differences between estimates of additive effects from the Loewe model (Greco W R. et al., Pharmacol. Rev. 1995 June; 47 (2): 331-85) and cell growth inhibition rates (%) subjected to sigmoid fitting were converted to matrices, and Synergy Scores were calculated from the matrix elements using a method described in the reference (Lehar J. et al., Nat Biotechnol. 2009 July; 27 (7):659-66). Besides, Synergy Score=0 indicates an additive effect; Synergy Score>0 indicates a synergistic effect; and Synergy Score<0 indicates an antagonistic effect.
(§2) Human pancreatic cancer cell line BxPC-3, which was obtained from ATCC, was used for evaluation. […] Then, BxPC-3 cells suspended at 4×10^4 cells/mL with RPMI1640 Medium containing 10% fetal bovine serum were seeded at 2.5 μL/well, and cultured at 37° C. under 5%CO2 for 6 days. After culturing, a solution of CellTiter-Glo 2.0 Assay (Promega) diluted with an equivalent volume of Glo Lysis buffer, 1× (Promega) was added at 2 μL/well and subjected to incubation at room temperature for an hour, followed by measurement of luminescence intensity of each well.

[2] = tested on: Human breast cancer cell line KPL-4; assay type: cell-based; settings: KPL-4 cell line
Procedure: as §1
Human breast cancer cell line KPL-4, which was obtained from Dr. Junichi Kurebayashi in Kawasaki Medical School [British Journal of Cancer, (1999) 79 (5/6). 707-717], was used for evaluation. […] Then, KPL-4 cells suspended at 1×10^4 cells/mL with RPMI1640 Medium containing 10% fetal bovine serum were seeded at 2.5 μL/well, and cultured at 37° C. under 5%CO2 for 6 days. After culturing, a solution of CellTiter-Glo 2.0 Assay diluted with an equivalent volume of Glo Lysis buffer, 1× was added at 2 μL/well and subjected to incubation at room temperature for an hour, followed by measurement of luminescence intensity of each well.

[3] = tested on: Human gastric cancer cell line NCI-N87; assay type: cell-based
Procedure: Human gastric cancer cell line NCI-N87, which was obtained from ATCC (American Type Culture Collection), was used for evaluation. […] Then, NCI-N87 cells suspended at 4×10^4 cells/mL with RPMI1640 Medium containing 10% fetal bovine serum were seeded at 2.5 μL/well, and cultured at 37° C. under 5%CO2 for 6 days.
After culturing, a solution of CellTiter-Glo 2.0 Assay (Promega) diluted with an equivalent volume of Glo Lysis buffer, 1× (Promega) was added at 2 μL/well and subjected to incubation at room temperature for an hour, followed by measurement of luminescence intensity of each well.
Cell growth inhibition rate […] in each condition was calculated using the following formula: […]
T: average luminescence intensity of wells added with each sample
B: average luminescence intensity of wells added with DMSO and medium
C: average luminescence intensity of wells added with DMSO and cells
Furthermore, sigmoid fitting was performed for the concentration-dependent transition of cell growth inhibition rate in each combination condition using Genedata Screener Analyzer Version 14 (Genedata, hereinafter referred to as Screener).
as §1

[4] = tested on: Human lung cancer cell line EBC-1; assay type: cell-based; settings: EBC-1 cell line
Procedure: as §1
Human lung cancer cell line EBC-1, which was obtained from Health Science Research Resources Bank (current Japanese Collection of Research Bioresources [JCRB] Cell Bank), was used for evaluation. […] Then, EBC-1 cells suspended at 2×10^4 cells/mL with RPMI1640 Medium containing 10% fetal bovine serum were seeded at 2.5 μL/well, and cultured at 37° C. under 5%CO2 for 6 days. After culturing, a solution of CellTiter-Glo 2.0 Assay diluted with an equivalent volume of Glo Lysis buffer, 1× was added at 2 μL/well and subjected to incubation at room temperature for an hour, followed by measurement of luminescence intensity of each well.

[5] = tested on: Human breast cancer cell line HCC70; assay type: cell-based
Procedure: as §1
as §2, with “breast” for “pancreatic”, “HCC70,” for “BxPC-3,”, “HCC70” for “BxPC-3”, “Assay” for “Assay (Promega)”, “1×” for “1× (Promega)”

[6] = tested on: Human breast cancer cell line HCC70; experiment: Antitumor study (7), subcutaneously transplanted HCC70 cells, HER3-ADC (1); assay type: in vivo; settings: HCC70 s.c. in nude mice; HER3-ADC (1) 10 mg/kg iv Day 0, 7, 14; olaparib 100 mg/kg po, talazoparib 0.4 mg/kg po once a day, five times a week, two weeks
Procedure: (§3) Talazoparib was dissolved with dimethyl acetamide, diluted with 5% Kolliphor HS15/Dulbecco's phosphate-buffered saline, and orally administered in a fluid volume of 10 mL/kg.
(§4) In Examples 16 and 17, HER3-ADC (1) was diluted with ABS buffer (10 mM acetate buffer (pH 5.5), 5% sorbitol), and intravenously administered in a fluid volume of 10 mL/kg to the tail vein.
Human breast cancer cell line HCC70 was suspended into physiological saline, subcutaneously transplanted at 1×10^7 cells into the right side of female nude mice, and the mice were randomly grouped 13 days after the transplantation (Day 0). The HER3-ADC (1) was intravenously administered to the tail vein at a dose of 10 mg/kg on Day 0, Day 7 and Day 14. […] Single administration groups of each drug, a combined administration group, and a solvent administration group as a control group were set up.

[7] = tested on: Human breast cancer cell line KPL-4; assay type: in vivo, BALB/c nude mice
Procedure: The calculation formula is as shown below.
Human breast cancer cell line KPL-4 [British Journal of Cancer, (1999) 79 (5/6).
Incidentally, in the following evaluation examples relating to antitumor studies, unless otherwise described, the studies are performed by the procedure used in this evaluation example.

[8] = tested on: Human breast cancer cell line MX-1; assay type: in vivo; settings: MX-1 s.c. in nude mice; HER2-ADC (1) 3 mg/kg iv Day 0; olaparib 100 mg/kg po, talazoparib 0.4 mg/kg po once a day, five times a week, two weeks
Procedure: as §3
Human breast cancer cell line MX-1, which was purchased from CLS (Cell Lines Service), was suspended into 50% Matrigel matrix, subcutaneously transplanted at 5×10^6 cells into the right side of female nude mice, and the mice were randomly grouped 13 days after the transplantation (Day 0). The HER2-ADC (1) was intravenously administered to the tail vein at a dose of 3 mg/kg on Day 0. […] Single administration groups of each drug, a combined administration group, and a solvent administration group as a control group were set up.

[9] = tested on: Human gastric cancer cell line NCI-N87; assay type: in vivo, BALB/c nude mice; settings: NCI-N87 s.c. in nude mice; HER2-ADC (1) 1 mg/kg iv Day 0; olaparib 50 mg/kg, talazoparib 0.4 mg/kg once a day, five times a week, two weeks
Procedure: (§5) Measurement and calculation formula: In all studies, the major axis and minor axis of tumors were measured twice a week with an electronic digital caliper (CD15-CX, Mitutoyo Corp.), and the tumor volume (mm^3) was calculated. The calculation formula is as shown below.
(§6) Tumor volume (mm^3)=1/2×Major axis (mm)×[Minor axis (mm)]^2
Talazoparib was dissolved with DMSO, diluted with 0.5% hydroxypropyl methylcellulose, and orally administered in a fluid volume of 10 mL/kg.
Human gastric cancer cell line NCI-N87, which was purchased from ATCC (American Type Culture Collection), was suspended into physiological saline, subcutaneously transplanted at 1×10^7 cells into the right side of female nude mice, and the mice were randomly grouped 6 days after the transplantation (Day 0). […] Single administration groups of each drug, a combined administration group, and a solvent administration group as a control group were set up.

[10] = tested on: Human ovarian cancer cell line SK-OV-3; assay type: in vivo, BALB/c nude mice; settings: SK-OV-3 s.c. in nude mice; HER2-ADC (1) 3 mg/kg iv Day 0 and Day 14; olaparib 60 mg/kg, talazoparib 0.4 mg/kg once a day, five times a week, three weeks
Procedure: as §5, §6
(§7) The HER2-ADC (1) was diluted with ABS buffer (10 mM acetate buffer [pH 5.5], 5% sorbitol), and intravenously administered in a fluid volume of 10 mL/kg to the tail vein. […] Talazoparib was dissolved with DMSO, diluted with 0.5% hydroxypropyl methylcellulose, and orally administered in a fluid volume of 10 mL/kg.
Human ovarian cancer cell line SK-OV-3 cells, which were purchased from ATCC (American Type Culture Collection), were maintained by nude mouse transplantation, subcutaneously transplanted in the form of a tumor mass of solid tumor (3×3×3 mm) into the right side of female nude mice, and the mice were randomly grouped 19 days after the transplantation (Day 0). HER2-ADC (1) was intravenously administered to the tail vein at a dose of 3 mg/kg on Day 0 and Day 14. […] Single administration groups of each drug, a combined administration group, and a solvent administration group as a control group were set up.

[11] = tested on: Human breast cancer cell line MX-1; experiment: Antitumor study (6), subcutaneously transplanted MX-1 cells, HER3-ADC (1); assay type: in vivo; settings: MX-1 s.c. in nude mice; HER3-ADC (1) 3 mg/kg iv Day 0, 7, 15; olaparib 100 mg/kg po, talazoparib 0.4 mg/kg po once a day, five times a week, two weeks
Procedure: as §3, §4
Human breast cancer cell line MX-1 was suspended into 50% Matrigel matrix, subcutaneously transplanted at 5×10^6 cells into the right side of female nude mice, and the mice were randomly grouped 13 days after the transplantation (Day 0). The HER3-ADC (1) was intravenously administered to the tail vein at a dose of 3 mg/kg on Day 0, Day 7 and Day 15. […] Single administration groups of each drug, a combined administration group, and a solvent administration group as a control group were set up.

[12] = tested on: Human ovarian cancer cell line OV-90; experiment: Antitumor study (9), subcutaneously transplanted OV-90 cells, CDH6-ADC (1); settings: OV-90 model, Day 17 after administration, single administration group; cachexia-like weight loss when tumor size exceeds 1500 mm^3
Procedure: as §5
(§8) Tumor growth inhibition (%)=100×(1−T/C) • T: Average tumor volume of mice of test substance administration group • C: Average tumor volume of mice of control group
Talazoparib was dissolved with DMSO, diluted with 0.5% hydroxypropyl methylcellulose, and orally administered in a fluid volume of 10 mL/kg. […] Veliparib was dissolved with a 0.05M CH COON solution and orally administered in a fluid volume of 10 mL/kg.
Human ovarian cancer cell line OV-90, which was purchased from ATCC, was suspended into physiological saline, subcutaneously transplanted at 1×10^7 cells into the right side of female nude mice, and the mice were randomly grouped 14 days after the transplantation (Day 0). […] Single administration groups of each drug, a combined administration group, and a solvent administration group as a control group were set up.

[13] = tested on: Human breast cancer cell line JIMT-1; settings: mouse, in vivo
Procedure: Measurement and calculation formula: In all studies, the major axis and minor axis of tumors were measured twice a week with an electronic digital caliper (CD15-CX, Mitutoyo Corp.), and the tumor volume (mm^3) was calculated.
as §6, §7
Human breast cancer cell line JIMT-1, which was purchased from DSMZ (Deutsche Sammlung von Mikroorganismen and Zellkulturen GmbH), was suspended into physiological saline, subcutaneously transplanted at 5×10^6 cells into the right side of female nude mice, and the mice were randomly grouped 10 days after the transplantation (Day 0). The HER2-ADC (1) was intravenously administered to the tail vein at a dose of 10 mg/kg on Day 0. […] Single administration groups of each drug, a combined administration group, and a solvent administration group as a control group were set up.

[14] = tested on: Human breast cancer cell line HCC1806; settings: mouse, in vivo
Procedure: as §5, §6
Tumor growth inhibition (TGI) was calculated in accordance with the following calculation formula.
as §8
Rucaparib (camsylate) was dissolved with DMSO, diluted with physiological saline, and orally administered in a fluid volume of 10 mL/kg. Talazoparib was dissolved with DMSO, diluted with 10% N,N-Dimethylacetamide/5% Kolliphor HS 15/Dulbecco's Phosphate-Buffered Saline, and orally administered in a fluid volume of 10 mL/kg.
Human breast cancer cell line HCC1806, which was Purchased from ATCC, was suspended into physiological saline, subcutaneously transplanted at 1×10^6 cells into the right side of female nude mice, and the mice were randomly grouped 10 days after the transplantation (Day 0). […] Single administration groups of each drug, a combined administration group, and a solvent administration group as a control group were set up, and tumor growth inhibition (TGI) on Day 21 was calculated.

[15] = 6 days, rucaparib (phosphate), >0 synergistic
[16] = all combinations with olaparib, talazoparib, rucaparib, niraparib
[17] = KPL-4 s.c. in nude mice, last day of study, HER2-ADC (1) 7.5 mg/kg iv Day 0, olaparib 50 mg/kg ip, niraparib 50 mg/kg po, talazoparib 0.4 mg/kg po, rucaparib (camsylate) 150 mg/kg po, once a day, five times a week, two weeks

Q: With CC[C@@]1(O)C(=O)OCc2c1cc1n(c2=O)Cc2c-1nc1cc(F)c(C)c3c1c2[C@@H](NC(=O)CO)CC3 [Compound (1)] as the compound, how does the “Synergy Score of combination with Niraparib” value (from here on “Synergy Score … with Niraparib”) ([1]; 6 days, >0 synergistic) read?
A: The value was 1.85.

Q: What about the “Synergy Score of combination with Olaparib” value (“Synergy Score … with Olaparib” for short) ([1]; 6 days, >0 synergistic) of the same compound?
A: The value was 1.56.

Q: And the “Synergy Score of combination with Talazoparib” value ([1]; 6 days, >0 synergistic)?
A: The value was 3.25.

Q: And the “Synergy Score of combination with Rucaparib” value (“Synergy Score … with Rucaparib” below) [1, 15]?
A: The value was 2.15.

Q: What about the “combination effect in cell growth inhibition study” value [1, 16] of the same compound?
A: The value was “synergistic effects”.

Q: What about the “Synergy Score … with Niraparib” value ([2]; 6 days, >0 synergistic) of the same compound?
A: Its value is 3.68.

Q: And the “Synergy Score … with Olaparib” value ([2]; 6 days, >0 synergistic)?
A: The value was 3.97.

Q: And the “Synergy Score of combination with Talazoparib” value ([2]; 6 days, >0 synergistic)?
A: The value was 4.86.

Q: What about the “Synergy Score … with Rucaparib” value [2, 15] of the same compound?
A: Its value is 4.97.

Q: And the “combination effect in cell growth inhibition study” value [2, 16]?
A: The value was “synergistic effects”.

Q: What about the “Synergy Score … with Niraparib” value ([3]; 6 days, >0 synergistic) of the same compound?
A: Its value is 1.23.

Q: And the “Synergy Score of combination with Talazoparib” value ([3]; 6 days, >0 synergistic)?
A: The value was 4.58.

Q: And the “Synergy Score … with Olaparib” value ([3]; 6 days, >0 synergistic, 0 additive, <0 antagonistic)?
A: The value was 3.21.

Q: What about the “Synergy Score … with Rucaparib” value [3, 15] of the same compound?
A: Its value is 1.93.

Q: What about the “combination effect in cell growth inhibition study” value [3, 16] of the same compound?
A: The value was “synergistic effects”.

Q: And the “Synergy Score … with Niraparib” value ([4]; 6 days, >0 synergistic)?
A: Its value is 3.17.

Q: What about the “Synergy Score … with Olaparib” value ([4]; 6 days, >0 synergistic) of the same compound?
A: Its value is 3.39.

Q: And the “Synergy Score of combination with Talazoparib” value ([4]; 6 days, >0 synergistic)?
A: Its value is 5.66.

Q: And the “Synergy Score … with Rucaparib” value [4, 15]?
A: The value was 4.41.

Q: What about the “combination effect in cell growth inhibition study” value [4, 16] of the same compound?
A: The value was “synergistic effects”.

Q: What about the “Synergy Score … with Niraparib” value ([5]; 6 days, >0 synergistic) of the same compound?
A: Its value is 1.61.

Q: And the “Synergy Score … with Olaparib” value ([5]; 6 days, >0 synergistic)?
A: Its value is 1.98.

Q: What about the “Synergy Score of combination with Talazoparib” value ([5]; 6 days, >0 synergistic) of the same compound?
A: The value was 4.61.

Q: And the “Synergy Score … with Rucaparib” value [5, 15]?
A: The value was 2.48.

Q: And the “combination effect in cell growth inhibition study” value [5, 16]?
A: The value was “synergistic effects”.

Q: Which “TGI, single administration” value [6] does the source give for O=C(c1cc(Cc2n[nH]c(=O)c3ccccc23)ccc1F)N1CCN(C(=O)C2CC2)CC1 [olaparib] here?
A: The value was 18%.

Q: What about the “tumor growth inhibition (TGI), single administration” value (“tumor growth inhibition (TGI)” below) [7, 17] of the same compound?
A: The value was 21%.

Q: And the “TGI, single administration” value [8]?
A: The value was 44%.

Q: What about the “TGI, single administration” value [9] of the same compound?
A: Its value is 26%.

Q: And the “TGI, single administration” value [10]?
A: Its value is 15%.

Q: And the “TGI, single administration” value [11]?
A: Its value is 23%.

Q: What does the source list for NC(=O)c1cccc2cn(-c3ccc([C@@H]4CCCNC4)cc3)nc12 [niraparib]?
A: mice euthanized due to weight loss [12]: 1 case out of 6 cases; tumor growth inhibition (TGI), single administration ([7]; mouse, in vivo): 39%

Q: How did the “mice euthanized due to weight loss” value [12] turn out when CNCc1ccc(-c2[nH]c3cc(F)cc4c3c2CCNC4=O)cc1 [rucaparib] was run?
A: The value was 1 case out of 6 cases.

Q: And the “tumor growth inhibition (TGI)” value [7, 17]?
A: The value was 42%.

Q: Cn1ncnc1[C@H]1c2n[nH]c(=O)c3cc(F)cc(c23)N[C@@H]1c1ccc(F)cc1 [talazoparib] was tested. Which “TGI, single administration” value [6] did it give?
A: The value was 19%.

Q: What about the “tumor growth inhibition (TGI)” value [7, 17] of the same compound?
A: The value was 31%.

Q: And the “TGI, single administration” value [8]?
A: The value was 47%.

Q: And the “TGI, single administration” value [9]?
A: The value was -2%.

Q: What about the “TGI, single administration” value [13] of the same compound?
A: The value was 13%.

Q: And the “TGI, single administration” value [10]?
A: The value was 12%.

Q: And the “TGI, single administration” value [11]?
A: Its value is 49%.

Q: And the “TGI, single administration” value [14]?
A: Its value is 27%.

— US20220023436A1, “COMBINATION OF ANTIBODY-DRUG CONJUGATE WITH PARP INHIBITOR” (DAIICHI SANKYO COMPANY, LIMITED, priority 2018, published 2022)
